From paper PMC5600443 (Biochemistry and Biophysics Reports, 2016)
“And” between values parts separate entries of the source, which are not always exact repeats. Equal values may be shown once.

Experiments:
Assay type in all cases: cell-based
[1] = test system: RH-35 rat liver cancer cell line; assay: MTT assay, inhibition of proliferation of RH-35 rat liver cancer cells; conditions: read-out: Cell proliferation RH-35 IC50, rat RH-35 cells, 72 h, average of 3 independent experiments + SEM
[2] = target: rat α1/β1 (Rα1/β1) Na^+,K^+pump (Rattus norvegicus, UniProt P06685); conditions: for Efficiency coefficient A = 100*IC50 Na,K pump/IC50 proliferation, Rα1/β1 pump: Rα1/β1 pump IC50 versus RH-35 cell proliferation IC50
[3] = target: rat α2/β1 (Rα2/β1) Na^+,K^+pump (Rattus norvegicus, UniProt P06686); conditions: Rα2/β1 pump IC50 versus RH-35 cell proliferation IC50

Molecule | IC50 [1] | Effect on Rα1/β1 pump current ([2]; 0.05 µM drug) | Inhibition of Rα1/β1 pump current ([2]; 0.50 µM drug) | Efficiency coefficient A = 100*IC50 Na,K pump/IC50 proliferation, Rα1/β1 pump [2] | Efficiency coefficient A = 100*IC50 Na,K pump/IC50 proliferation, Rα2/β1 pump [3]
CC12CCC(OC(=O)NCCCn3ccnc3)CC1CCC1C2CCC2(C)C(c3ccc(=O)oc3)CCC12O (centres unmarked) [BF238, Bufalin-3-yl [3-(1h-imidazol-1-yl)propyl]carbamate] | 37.4 ± 3.1 µM | hardly affected | more than 50% | 0.88 | 2.64
CNCCCNC(=O)O[C@H]1CC[C@@]2(C)[C@H](CC[C@@H]3[C@@H]2CC[C@]2(C)[C@@H](c4ccc(=O)oc4)CC[C@]32O)C1 [BF601, Bufalin-3-yl [3-(methylamino)propyl]carbamate] | ~30.8 µM and 30.8 µM |  |  | 0.35 | 0.92
Bufalin-3-MeON-arabinopyranoside [BAP] | ~67.2 µM and 67.2 µM |  |  | 0.10 | 0.16
